From PubChem BioAssay AID1745844 (Carcinogenic Potency Database (CPDB), 2022)
Where “and” joins values, the source holds several entries; their conditions need not be identical. Equal entries are not always repeated. Calls of active or inactive are those of the source. How the calls were made is not given here.

Tested on: rodent lifetime carcinogenesis bioassay, tumor incidence TD50
Assay: chronic cancer bioassays in animals – CPDB, compiled studies (AID 1745844)

Structure (SMILES): Cc1ccc(N=C=O)cc1N=C=O
- TD50 (mouse, strain B6C3F1, females, by gavage, site: abdominal cavity + liver + ovary + spleen + subcutaneous tissue, lesion: hemangiosarcoma + hemangioma, dosed 105 weeks, study length 107 weeks): 580 mg/kg/day
- TD50 (mouse, strain B6C3F1, females, by gavage, site: abdominal cavity + liver + ovary + spleen + subcutaneous tissue, lesion: hemangiosarcoma + hepatocellular adenoma + hemangioma, dosed 105 weeks, study length 107 weeks): 181 mg/kg/day
- TD50 (mouse, strain B6C3F1, females, by gavage, site: abdominal cavity + liver + ovary, lesion: hemangiosarcoma, dosed 105 weeks, study length 107 weeks): 1200 mg/kg/day
- TD50 (mouse, strain B6C3F1, females, by gavage, site: any site (literature study), lesion: several types, types named in the paper, dosed 105 weeks, study length 107 weeks): 305 mg/kg/day
- TD50 (mouse, strain B6C3F1, females, by gavage, site: liver, lesion: hepatocellular adenoma + hepatocellular carcinoma + neoplastic nodule, dosed 105 weeks, study length 107 weeks): 215 mg/kg/day
- TD50 (mouse, strain B6C3F1, females, by gavage, site: liver, lesion: hepatocellular adenoma + hepatocellular carcinoma, dosed 105 weeks, study length 107 weeks): 215 mg/kg/day
- TD50 (mouse, strain B6C3F1, females, by gavage, site: liver, lesion: hepatocellular adenoma, dosed 105 weeks, study length 107 weeks): 250 mg/kg/day
- TD50 (mouse, strain B6C3F1, females, by gavage, site: lung, lesion: alveolar/bronchiolar adenoma + alveolar/bronchiolar carcinoma, dosed 105 weeks, study length 107 weeks): 815 mg/kg/day
- TD50 (mouse, strain B6C3F1, males, by gavage, site: any site (literature study), lesion: several types, types named in the paper, dosed 105 weeks, study length 107 weeks): 253 mg/kg/day (inactive)
- TD50 (mouse, strain B6C3F1, males, by gavage, site: lung, lesion: alveolar/bronchiolar adenoma + alveolar/bronchiolar carcinoma, dosed 105 weeks, study length 107 weeks): 1920 mg/kg/day
- carcinogen call (mouse, strain Charles River CD1, females, inhaled, site: any site (literature study), lesion: benign tumor, dosed 104 weeks, study length 104 weeks): negative (inactive)
- carcinogen call (mouse, strain Charles River CD1, females, inhaled, site: any site (literature study), lesion: malignant tumor, dosed 104 weeks, study length 104 weeks): negative (inactive)
- carcinogen call (mouse, strain Charles River CD1, females, inhaled, site: any site (literature study), lesion: several types, types named in the paper, dosed 104 weeks, study length 104 weeks): negative (inactive)
- carcinogen call (mouse, strain Charles River CD1, females, inhaled, site: liver, lesion: hepatocellular adenoma, dosed 104 weeks, study length 104 weeks): negative (inactive)
- carcinogen call (mouse, strain Charles River CD1, females, inhaled, site: liver, lesion: hepatocellular carcinoma, dosed 104 weeks, study length 104 weeks): negative (inactive)
- carcinogen call (mouse, strain Charles River CD1, females, inhaled, site: lung, lesion: adenoma, dosed 104 weeks, study length 104 weeks): negative (inactive)
- carcinogen call (mouse, strain Charles River CD1, females, inhaled, site: lung, lesion: carcinoma, dosed 104 weeks, study length 104 weeks): negative (inactive)
- carcinogen call (mouse, strain Charles River CD1, males, inhaled, site: any site (literature study), lesion: benign tumor, dosed 104 weeks, study length 104 weeks): negative (inactive)
- carcinogen call (mouse, strain Charles River CD1, males, inhaled, site: any site (literature study), lesion: malignant tumor, dosed 104 weeks, study length 104 weeks): negative (inactive)
- TD50 (mouse, strain Charles River CD1, males, inhaled, site: any site (literature study), lesion: several types, types named in the paper, dosed 104 weeks, study length 104 weeks): 1.63 mg/kg/day (inactive)
- carcinogen call (mouse, strain Charles River CD1, males, inhaled, site: liver, lesion: hepatocellular adenoma, dosed 104 weeks, study length 104 weeks): negative (inactive)
- carcinogen call (mouse, strain Charles River CD1, males, inhaled, site: liver, lesion: hepatocellular carcinoma, dosed 104 weeks, study length 104 weeks): negative (inactive)
- TD50 (mouse, strain Charles River CD1, males, inhaled, site: lung, lesion: adenoma, dosed 104 weeks, study length 104 weeks): 0.3 mg/kg/day (inactive)
- carcinogen call (mouse, strain Charles River CD1, males, inhaled, site: lung, lesion: carcinoma, dosed 104 weeks, study length 104 weeks): negative (inactive)
- carcinogen call (rat, strain Charles River CD (Sprague-Dawley), females, inhaled, site: any site (literature study), lesion: benign tumor, dosed 108 weeks, study length 108 weeks): negative (inactive)
- TD50 (rat, strain Charles River CD (Sprague-Dawley), females, inhaled, site: any site (literature study), lesion: malignant tumor, dosed 108 weeks, study length 108 weeks): 1.09 mg/kg/day (inactive)
- carcinogen call (rat, strain Charles River CD (Sprague-Dawley), females, inhaled, site: any site (literature study), lesion: several types, types named in the paper, dosed 108 weeks, study length 108 weeks): negative (inactive)
- TD50 (rat, strain Charles River CD (Sprague-Dawley), females, inhaled, site: liver, lesion: hepatocellular carcinoma, dosed 108 weeks, study length 108 weeks): 8.24 mg/kg/day (inactive)
- carcinogen call (rat, strain Charles River CD (Sprague-Dawley), males, inhaled, site: any site (literature study), lesion: benign tumor, dosed 110 weeks, study length 110 weeks): negative (inactive)
- TD50 (rat, strain Charles River CD (Sprague-Dawley), males, inhaled, site: any site (literature study), lesion: malignant tumor, dosed 110 weeks, study length 110 weeks): 6.18 mg/kg/day (inactive)
- carcinogen call (rat, strain Charles River CD (Sprague-Dawley), males, inhaled, site: any site (literature study), lesion: several types, types named in the paper, dosed 110 weeks, study length 110 weeks): negative (inactive)
- carcinogen call (rat, strain Charles River CD (Sprague-Dawley), males, inhaled, site: liver, lesion: hepatocellular carcinoma, dosed 110 weeks, study length 110 weeks): negative (inactive)
- TD50 (rat, strain Fischer 344, females, by gavage, site: adrenal gland, lesion: cortical adenoma, dosed 106 weeks, study length 108 weeks): 174 mg/kg/day
- TD50 (rat, strain Fischer 344, females, by gavage, site: adrenal gland, lesion: pheochromocytoma, dosed 106 weeks, study length 108 weeks): 143 mg/kg/day
- TD50 (rat, strain Fischer 344, females, by gavage, site: any site (literature study), lesion: several types, types named in the paper, dosed 106 weeks, study length 108 weeks): 25.1 mg/kg/day
- TD50 (rat, strain Fischer 344, females, by gavage, site: clitoral gland, lesion: adenoma, NOS, dosed 106 weeks, study length 108 weeks): 260 mg/kg/day
- TD50 (rat, strain Fischer 344, females, by gavage, site: liver + mammary gland + pancreatic islets + subcutaneous tissue, lesion: neoplastic nodule + fibroadenoma + islet-cell adenoma + fibrosarcoma + fibroma, dosed 106 weeks, study length 108 weeks): 25.4 mg/kg/day
- TD50 (rat, strain Fischer 344, females, by gavage, site: liver, lesion: hepatocellular adenoma + hepatocellular carcinoma + neoplastic nodule, dosed 106 weeks, study length 108 weeks): 92.2 mg/kg/day
- TD50 (rat, strain Fischer 344, females, by gavage, site: liver, lesion: neoplastic nodule, dosed 106 weeks, study length 108 weeks): 92.2 mg/kg/day
- TD50 (rat, strain Fischer 344, females, by gavage, site: mammary gland, lesion: fibroadenoma, dosed 106 weeks, study length 108 weeks): 33.4 mg/kg/day
- TD50 (rat, strain Fischer 344, females, by gavage, site: pancreatic islets, lesion: islet-cell adenoma + islet-cell carcinoma, dosed 106 weeks, study length 108 weeks): 115 mg/kg/day
- TD50 (rat, strain Fischer 344, females, by gavage, site: pancreatic islets, lesion: islet-cell adenoma, dosed 106 weeks, study length 108 weeks): 135 mg/kg/day
- TD50 (rat, strain Fischer 344, females, by gavage, site: pituitary gland, lesion: chromophobe adenoma + chromophobe carcinoma, dosed 106 weeks, study length 108 weeks): 86.9 mg/kg/day
- TD50 (rat, strain Fischer 344, females, by gavage, site: pituitary gland, lesion: chromophobe adenoma, dosed 106 weeks, study length 108 weeks): 77.3 mg/kg/day
- TD50 (rat, strain Fischer 344, females, by gavage, site: subcutaneous tissue, lesion: fibroma, dosed 106 weeks, study length 108 weeks): 256 mg/kg/day
- TD50 (rat, strain Fischer 344, females, by gavage, site: subcutaneous tissue, lesion: fibrosarcoma + fibroma, dosed 106 weeks, study length 108 weeks): 206 mg/kg/day
- TD50 (rat, strain Fischer 344, males, by gavage, site: any site (literature study), lesion: several types, types named in the paper, dosed 106 weeks, study length 108 weeks): 18.4 mg/kg/day
- TD50 (rat, strain Fischer 344, males, by gavage, site: liver, lesion: hepatocellular adenoma + hepatocellular carcinoma + neoplastic nodule, dosed 106 weeks, study length 108 weeks): 196 mg/kg/day
- TD50 (rat, strain Fischer 344, males, by gavage, site: pancreas + subcutaneous tissue, lesion: acinar-cell adenoma + fibrosarcoma + fibroma, dosed 106 weeks, study length 108 weeks): 27.3 mg/kg/day
- TD50 (rat, strain Fischer 344, males, by gavage, site: pancreas, lesion: acinar-cell adenoma, dosed 106 weeks, study length 108 weeks): 51.6 mg/kg/day
- TD50 (rat, strain Fischer 344, males, by gavage, site: pancreatic islets, lesion: islet-cell adenoma + islet-cell carcinoma, dosed 106 weeks, study length 108 weeks): 201 mg/kg/day
- TD50 (rat, strain Fischer 344, males, by gavage, site: pituitary gland, lesion: chromophobe adenoma + chromophobe carcinoma, dosed 106 weeks, study length 108 weeks): 83.7 mg/kg/day
- TD50 (rat, strain Fischer 344, males, by gavage, site: pituitary gland, lesion: chromophobe adenoma, dosed 106 weeks, study length 108 weeks): 76.4 mg/kg/day
- TD50 (rat, strain Fischer 344, males, by gavage, site: subcutaneous tissue, lesion: fibroma, dosed 106 weeks, study length 108 weeks): 56 mg/kg/day
- TD50 (rat, strain Fischer 344, males, by gavage, site: subcutaneous tissue, lesion: fibrosarcoma + fibroma, dosed 106 weeks, study length 108 weeks): 34.1 mg/kg/day
- TD50 (rat, strain Fischer 344, males, by gavage, site: subcutaneous tissue, lesion: fibrosarcoma + osteosarcoma + sarcoma, NOS, dosed 106 weeks, study length 108 weeks): 103 mg/kg/day
- TD50 (rat, strain Fischer 344, males, by gavage, site: subcutaneous tissue, lesion: fibrosarcoma, dosed 106 weeks, study length 108 weeks): 92.4 mg/kg/day
- TD50 (rat, strain Fischer 344, males, by gavage, site: testis, lesion: interstitial-cell tumor + interstitial-cell tumor, malignant, dosed 106 weeks, study length 108 weeks): 13.6 mg/kg/day

Structure (SMILES): COc1ccc(OC)c(/C=C/c2ccc(N)cc2)c1
- TD50 (mouse, strain CD-1 HaM/ICR, females, in feed, site: any site (literature study), lesion: several types, types named in the paper, dosed 77 weeks, study length 90 weeks): 118 mg/kg/day (inactive)
- carcinogen call (mouse, strain CD-1 HaM/ICR, females, in feed, site: liver, lesion: several types, types named in the paper, dosed 77 weeks, study length 90 weeks): negative (inactive)
- TD50 (mouse, strain CD-1 HaM/ICR, females, in feed, site: lung, lesion: several types, types named in the paper, dosed 77 weeks, study length 90 weeks): 152 mg/kg/day (inactive)
- TD50 (mouse, strain CD-1 HaM/ICR, males, in feed, site: any site (literature study), lesion: several types, types named in the paper, dosed 77 weeks, study length 90 weeks): 126 mg/kg/day
- TD50 (mouse, strain CD-1 HaM/ICR, males, in feed, site: liver, lesion: hepatoma, dosed 77 weeks, study length 90 weeks): 376 mg/kg/day
- TD50 (mouse, strain CD-1 HaM/ICR, males, in feed, site: liver, lesion: several types, types named in the paper, dosed 77 weeks, study length 90 weeks): 329 mg/kg/day
- TD50 (mouse, strain CD-1 HaM/ICR, males, in feed, site: lung, lesion: several types, types named in the paper, dosed 77 weeks, study length 90 weeks): 95.9 mg/kg/day and 115 mg/kg/day
- TD50 (rat, strain Charles River CD (Sprague-Dawley), males, in feed, site: any site (literature study), lesion: several types, types named in the paper, dosed 47 weeks, study length 51 weeks): 0.269 mg/kg/day
- TD50 (rat, strain Charles River CD (Sprague-Dawley), males, in feed, site: ear, lesion: several types, types named in the paper, dosed 47 weeks, study length 51 weeks): 1.45 mg/kg/day and 1.54 mg/kg/day
- TD50 (rat, strain Charles River CD (Sprague-Dawley), males, in feed, site: liver, lesion: several types, types named in the paper, dosed 47 weeks, study length 51 weeks): 2.61 mg/kg/day
- TD50 (rat, strain Charles River CD (Sprague-Dawley), males, in feed, site: skin, lesion: several types, types named in the paper, dosed 47 weeks, study length 51 weeks): 1.48 mg/kg/day
- TD50 (rat, strain Charles River CD (Sprague-Dawley), males, in feed, site: small intestine, lesion: several types, types named in the paper, dosed 47 weeks, study length 51 weeks): 0.866 mg/kg/day
- TD50 (rat, strain Charles River CD (Sprague-Dawley), males, in feed, site: stomach, lesion: several types, types named in the paper, dosed 47 weeks, study length 51 weeks): 0.721 mg/kg/day
